This assay has as its target Pol Theta (1-894) (Homo sapiens (Human), UniProt O75417). The assay is described as follows: Biochemical Pol Theta (1-894) ATPase IC50 assay (ADP-Glo, ssDNA substrate). As to conditions: ADP-Glo assay with ssDNA substrate, room temperature. The protocol:
Baculovirus Expression of Human POL theta (1-894)
Human POL Theta (1-894)-His-pFastBac1 baculovirus samples were generated using the Bac-to-Bac baculovirus expression system (Invitrogen) according to the manufacturer's protocol. […] Baculovirus amplification was achieved using infected SF9 cells at 1:2000 virus/cells ratios, and grown for 96 hours at 27° C. post-transfection. The expression scaled up for each protein was carried out in the flask 3 L from CORNING. 4 L of 3×10^6 cells/mL Sf9 cells (Expression System, Invitrogen) grown in SF900TM II SFM insect medium (Expression System) were infected with virus stock at 1:200 virus/cell ratios, and grown for 48 hours at 27° C. post-transfection. The infected cell culture was harvested by centrifugation at 6000 rpm for 15 min 4° C. in a SORVALL LYNX6000 centrifuge. The cell pellets were stored at −80° C.
The human POL Theta (1-894)-His produced as described above, were purified from Sf9 baculovirus-infected insect cell paste. The cells were lysed using sonication method, and the lysates were clarified by centrifugation.
Enzymatic reactions of Pol Theta (1-894) were performed using ADP-Glo assay with ssDNA substrate. Pol Theta (1-894) was expressed in baculovirus expression system. The inhibition activities testing for the compound disclosed herein were carried out at room temperature in assay buffer containing 40 mM Tris pH 7.5, 20 mM MgCl2, 1 mM DTT, 0.01% BSA and 0.05% Tween-20. Compounds in DMSO were dispensed into wells of a black 384 well plate (Corning 4514) using D300e digital dispenser (Tecan). The ranges of compounds final concentration were 2.62 nM˜10000 nM. 3 μL 2× enzyme solution containing 12.5 nM enzyme was added to wells. […] After 1 hour reaction, 5 μL ADP-Glo reagent (Promga V9102) was added and incubated for 40 minutes. 10 μL Kinase Detection reagent was added and incubated for 40 minutes. Luminescence was measured on a microplate reader (PHERAstar FSX, BMG labtech). The IC50 values were calculated based on inhibition of enzyme activity in the presence of increasing concentrations of compounds.
Background: ADP-Glo turns the ADP formed in a reaction into a luminescent signal.
Pol Theta (1-894), sequence (O75417 1-894): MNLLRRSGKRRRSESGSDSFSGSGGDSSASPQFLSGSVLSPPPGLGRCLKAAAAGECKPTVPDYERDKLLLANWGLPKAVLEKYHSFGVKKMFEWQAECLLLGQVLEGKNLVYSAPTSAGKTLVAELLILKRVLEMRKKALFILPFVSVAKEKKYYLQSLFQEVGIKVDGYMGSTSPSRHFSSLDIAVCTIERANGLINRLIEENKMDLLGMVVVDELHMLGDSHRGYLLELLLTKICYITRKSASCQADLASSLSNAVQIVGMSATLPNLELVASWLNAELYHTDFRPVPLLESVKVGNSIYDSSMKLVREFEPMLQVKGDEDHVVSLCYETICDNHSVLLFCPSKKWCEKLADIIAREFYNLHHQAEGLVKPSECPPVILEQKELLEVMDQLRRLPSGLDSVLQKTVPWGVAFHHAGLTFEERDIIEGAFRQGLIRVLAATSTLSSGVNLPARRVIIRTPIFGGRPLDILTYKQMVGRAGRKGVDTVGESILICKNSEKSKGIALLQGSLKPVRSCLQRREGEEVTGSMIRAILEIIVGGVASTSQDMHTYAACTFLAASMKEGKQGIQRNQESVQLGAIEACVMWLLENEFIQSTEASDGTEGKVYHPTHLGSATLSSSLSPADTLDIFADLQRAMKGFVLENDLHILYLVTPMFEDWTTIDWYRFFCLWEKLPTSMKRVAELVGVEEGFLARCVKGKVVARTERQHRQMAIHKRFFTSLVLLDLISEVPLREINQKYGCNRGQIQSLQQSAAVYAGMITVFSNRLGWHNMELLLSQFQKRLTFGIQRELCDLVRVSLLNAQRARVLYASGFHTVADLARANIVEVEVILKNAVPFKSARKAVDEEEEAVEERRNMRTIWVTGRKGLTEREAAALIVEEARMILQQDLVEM
`N#Cc1ccc(C(=O)Nc2nc3ccc(-c4ccc(Cl)cc4)nc3s2)c(N2CCOCC2)n1` [Example 1, N-(5-(4-chlorophenyl)thiazolo[5,4-b]pyridin-2-yl)-6-cyano-2-morpholinonicotinamide]: the IC50 (usually the midpoint of a concentration-inhibition curve) was 347 nM.
The figure for `COc1ccccc1-c1ccncc1C(=O)Nc1nc2ccc(-c3ccc(Cl)cc3)nc2s1` [Example 2, N-(5-(4-chlorophenyl)thiazolo[5,4-b]pyridin-2-yl)-4-(2-methoxyphenyl)nicotinamide] is 191 nM.
In turn, `COc1ccccc1-c1cnccc1C(=O)Nc1nc2ccc(-c3ccc(Cl)cc3)nc2s1` [Example 3, N-(5-(4-chlorophenyl)thiazolo[5,4-b]pyridin-2-yl)-3-(2-methoxyphenyl)isonicotinamide] showed an IC50 of 145 nM.
The figure for `CC(=O)Nc1ccc(-c2ccc3nc(NC(=O)c4ccc(C#N)nc4N4CCOCC4)sc3n2)cc1` [Example 5, N-(5-(4-acetamidophenyl)thiazolo[5,4-b]pyridin-2-yl)-6-cyano-2-morpholinonicotinamide] is 186 nM; for `COc1ccccc1-c1nc(C#N)ccc1C(=O)Nc1nc2ccc(-c3ccc(Cl)cc3)nc2s1` [Example 6, N-(5-(4-chlorophenyl)thiazolo[5,4-b]pyridin-2-yl)-6-cyano-2-(2-methoxyphenyl)nicotinamide] it is 359 nM.
The figure for `COc1ccc(C#N)cc1-c1nc(C#N)ccc1C(=O)Nc1nc2ccc(-c3ccc(Cl)cc3)nc2s1` [Example 7, N-(5-(4-chlorophenyl)thiazolo[5,4-b]pyridin-2-yl)-6-cyano-2-(5-cyano-2-methoxyphenyl)nicotinamide] is 92 nM; for `COc1ccc(C#N)cc1-c1cc(C)ncc1C(=O)Nc1nc2ccc(-c3ccc(Cl)cc3)nc2s1` [Example 8, N-(5-(4-chlorophenyl)thiazolo[5,4-b]pyridin-2-yl)-4-(5-cyano-2-methoxyphenyl)-6-methylnicotinamide] it is 12 nM; for `COc1ccccc1-c1cnncc1C(=O)Nc1nc2ccc(-c3ccc(Cl)cc3)nc2s1` [Example 9, N-(5-(4-chlorophenyl)thiazolo[5,4-b]pyridin-2-yl)-5-(2-methoxyphenyl)pyridazine-4-carboxamide] it is 20 nM.
In turn, `COc1cccc(F)c1-c1nc(C#N)ccc1C(=O)Nc1nc2ccc(-c3ccc(Cl)cc3)nc2s1` [Example 10, N-(5-(4-chlorophenyl)thiazolo[5,4-b]pyridin-2-yl)-6-cyano-2-(2-fluoro-6-methoxyphenyl)nicotinamide] showed an IC50 of 149 nM.
The figure for `COc1ccc(C#N)cc1-c1cnccc1C(=O)Nc1nc2ccc(-c3ccc(Cl)cc3)nc2s1` [Example 11, N-(5-(4-chlorophenyl)thiazolo[5,4-b]pyridin-2-yl)-3-(5-cyano-2-methoxyphenyl)isonicotinamide] is 57 nM; for `COc1ccccc1-n1cncc1C(=O)Nc1nc2ccc(-c3ccc(Cl)cc3)nc2s1` [Example 12, N-(5-(4-chlorophenyl)thiazolo[5,4-b]pyridin-2-yl)-1-(2-methoxyphenyl)-1H-imidazole-5-carboxamide] it is 324 nM.
Consider `N#Cc1ccc(C(=O)Nc2nc3ccc(-c4ccc(Cl)cc4)nc3s2)c(N2CCNC(=O)C2)n1` [Example 13, N-(5-(4-chlorophenyl)thiazolo[5,4-b]pyridin-2-yl)-6-cyano-2-(3-oxopiperazin-1-yl)nicotinamide], for which it took 147 nM to reach half-maximal inhibition (IC50).
The figure for `COc1ccccc1-c1cc(C)ncc1C(=O)Nc1nc2ccc(-c3ccc(Cl)cc3)nc2s1` [Example 14, N-(5-(4-chlorophenyl)thiazolo[5,4-b]pyridin-2-yl)-4-(2-methoxyphenyl)-6-methylnicotinamide] is 143 nM; for `Cn1nccc1-c1ccc2nc(NC(=O)c3ccc(C#N)nc3N3CCOCC3)sc2n1` [Example 15, 6-cyano-N-(5-(1-methyl-1H-pyrazol-5-yl)thiazolo[5,4-b]pyridin-2-yl)-2-morpholinonicotinamide] it is 206 nM; for `COc1ccccc1-c1cnncc1C(=O)Nc1nc2ccc(-c3ccc(NC(C)=O)cc3)nc2s1` [Example 16, N-(5-(4-acetamidophenyl)thiazolo[5,4-b]pyridin-2-yl)-5-(2-methoxyphenyl)pyridazine-4-carboxamide] it is 8.2 nM.
`COc1ccc(C#N)cc1-c1cc(C)ncc1C(=O)Nc1nc2ccc(-c3ccc(NC(C)=O)cc3)nc2s1` [Example 17, N-(5-(4-acetamidophenyl)thiazolo[5,4-b]pyridin-2-yl)-4-(5-cyano-2-methoxyphenyl)-6-methylnicotinamide] returned an IC50 of 8.1 nM.
With `COc1ccc(C#N)cc1-c1cc(C)ncc1C(=O)Nc1nc2ccc(-c3ccc(NS(C)(=O)=O)cc3)nc2s1` [Example 18, 4-(5-cyano-2-methoxyphenyl)-6-methyl-N-(5-(4-(methylsulfonamido)phenyl)thiazolo[5,4-b]pyridin-2-yl)nicotinamide] the figure was 11 nM.
With `COc1ccc(C#N)cc1-c1cc(C)ncc1C(=O)Nc1nc2ccc(-c3ccc(C#N)cc3)nc2s1` [Example 19, 4-(5-cyano-2-methoxyphenyl)-N-(5-(4-cyanophenyl)thiazolo[5,4-b]pyridin-2-yl)-6-methylnicotinamide] the figure was 8.5 nM; with `COc1ccc(C#N)cc1-c1cc(C)ncc1C(=O)Nc1nc2ccc(-c3ccc(C4CC4)cc3)nc2s1` [Example 20, 4-(5-cyano-2-methoxyphenyl)-N-(5-(4-cyclopropylphenyl)thiazolo[5,4-b]pyridin-2-yl)-6-methylnicotinamide], 54 nM; with `COc1ccc(C#N)cc1-c1cc(C)ncc1C(=O)Nc1nc2ccc(-c3ccc(C(N)=O)cc3)nc2s1` [Example 21, N-(5-(4-carbamoylphenyl)thiazolo[5,4-b]pyridin-2-yl)-4-(5-cyano-2-methoxyphenyl)-6-methylnicotinamide], 81 nM.
With `COc1ccc(C#N)cc1-c1cnccc1C(=O)Nc1nc2ccc(-c3ccc(NC(C)=O)cc3)nc2s1` [Example 22, N-(5-(4-acetamidophenyl)thiazolo[5,4-b]pyridin-2-yl)-3-(5-cyano-2-methoxyphenyl)isonicotinamide] the figure was 33 nM.
For the compound `COc1ccc(C#N)cc1-c1cnncc1C(=O)Nc1nc2ccc(-c3ccc(NC(C)=O)cc3)nc2s1` [Example 23, N-(5-(4-acetamidophenyl)thiazolo[5,4-b]pyridin-2-yl)-5-(5-cyano-2-methoxyphenyl)pyridazine-4-carboxamide], half-maximal inhibition (IC50) was put at 22 nM.
The figure for `COc1ccc(C(F)(F)F)cc1-c1cc(C)ncc1C(=O)Nc1nc2ccc(-c3ccc(NC(C)=O)cc3)nc2s1` [Example 24, N-(5-(4-acetamidophenyl)thiazolo[5,4-b]pyridin-2-yl)-4-(2-methoxy-5-(trifluoromethyl)phenyl)-6-methylnicotinamide] is 62 nM.
With `COc1ccc(F)cc1-c1cc(C)ncc1C(=O)Nc1nc2ccc(-c3ccc(NC(C)=O)cc3)nc2s1` [Example 25, N-(5-(4-acetamidophenyl)thiazolo[5,4-b]pyridin-2-yl)-4-(5-fluoro-2-methoxyphenyl)-6-methylnicotinamide] the figure was 54 nM; with `COc1ccc(C(N)=O)cc1-c1cc(C)ncc1C(=O)Nc1nc2ccc(-c3ccc(NC(C)=O)cc3)nc2s1` [Example 26, N-(5-(4-acetamidophenyl)thiazolo[5,4-b]pyridin-2-yl)-4-(5-carbamoyl-2-methoxyphenyl)-6-methylnicotinamide], 189 nM; with `COc1ccccc1-c1cc(C#N)ncc1C(=O)Nc1nc2ccc(-c3ccc(NC(C)=O)cc3)nc2s1` [Example 27, N-(5-(4-acetamidophenyl)thiazolo[5,4-b]pyridin-2-yl)-6-cyano-4-(2-methoxyphenyl)nicotinamide], 67 nM.
For the compound `COCc1ccc(OC)c(-c2cc(C)ncc2C(=O)Nc2nc3ccc(-c4ccc(NC(C)=O)cc4)nc3s2)c1` [Example 28, N-(5-(4-acetamidophenyl)thiazolo[5,4-b]pyridin-2-yl)-4-(2-methoxy-5-(methoxymethyl)phenyl)-6-methylnicotinamide], the IC50 was found to be 256 nM.
With `COc1ccc(C#N)cc1-c1cc(C)ncc1C(=O)Nc1nc2ccc(-c3ccc(C4(C#N)CC4)cc3)nc2s1` [Example 29, 4-(5-cyano-2-methoxyphenyl)-N-(5-(4-(1-cyanocyclopropyl)phenyl)thiazolo[5,4-b]pyridin-2-yl)-6-methylnicotinamide] the figure was 57 nM; with `COc1ccc(C#N)cc1-c1cc(C)ncc1C(=O)Nc1nc2ccc(-c3ccc(F)cc3)nc2s1` [Example 30, 4-(5-cyano-2-methoxyphenyl)-N-(5-(4-fluorophenyl)thiazolo[5,4-b]pyridin-2-yl)-6-methylnicotinamide], 222 nM.
